# Measurements taken from patent US20070128217A1 (priority 2003, published 2007).
# Columns and labels:
# [1] = tested on: rabbit serum obtained by immunizing a rabbit with the SARS-CoV strain Frankfurt 1; assay type: binding; set-up: Binding of a rabbit serum to linear peptides / Binding of a rabbit serum to looped peptides / Rabbit serum linear peptides / Rabbit serum looped peptides / Binding of a rabbit serum to linear peptides of protein N of SARS-CoV Urbani (Rabbit serum linear peptides) / Binding of a rabbit serum to looped/cyclic peptides of protein N of SARS-CoV Urbani (Rabbit serum looped peptides): unit not given here
# [2] = tested on: antibodies in sera from SARS patients (sera 1a, 1b, 2, 6, 37, 62, London, SARS-yellow, SARS-green); assay type: binding, human; set-up: Binding of serum 6 to linear peptides of protein X1 of SARS-CoV Urbani / Binding of serum 37 to linear peptides of protein X1 of SARS-CoV Urbani / Binding of serum 6 to looped/cyclic peptide (PEPSCAN-ELISA) / Binding of serum 37 to looped/cyclic peptide (PEPSCAN-ELISA) / Binding of serum 37 to looped/cyclic peptides of protein X1 of SARS-CoV Urbani / Binding of serum 6 to linear peptides of protein X2 / Binding of serum 37 to linear peptides of protein X2 / Binding of serum 37 to looped/cyclic peptides of protein X2 of SARS-CoV Urbani / Binding of serum 6 to linear peptides of protein M of SARS-CoV Urbani / Binding of serum 37 to linear peptides of protein M of SARS-CoV Urbani / Binding of serum 6 to looped/cyclic peptides of protein M of SARS-CoV Urbani / Binding of serum 37 to looped/cyclic peptides of protein M of SARS-CoV Urbani / Binding of serum 6 to linear peptides of protein X3 of SARS-CoV Urbani / Binding of serum 37 to linear peptides of protein X3 of SARS-CoV Urbani / Binding of serum 37 to looped/cyclic peptides of protein X3 of SARS-CoV Urbani / Binding of serum 6 to linear peptides of protein X4 of SARS-CoV Urbani / Binding of serum 37 to linear peptides of protein X4 of SARS-CoV Urbani / Binding of serum 37 to looped/cyclic peptides of protein X4 of SARS-CoV Urbani / Binding of serum 6 to linear peptides of protein X5 of SARS-CoV Urbani / Binding of serum 37 to linear peptides of protein X5 of SARS-CoV Urbani / Binding of serum 37 to looped/cyclic peptides of protein X5 of SARS-CoV Urbani / Binding of serum 6 to linear peptides of protein N of SARS-CoV Urbani / Binding of serum 37 to linear peptides of protein N of SARS-CoV Urbani / Binding of serum 6 to linear peptide (PEPSCAN-ELISA) / Binding of serum 1a to looped/cyclic peptides of protein N of SARS-CoV Urbani / Binding of serum 1b to looped/cyclic peptides of protein N of SARS-CoV Urbani / Binding of serum 2 to looped/cyclic peptides of protein N of SARS-CoV Urbani / Binding of serum 6 to looped/cyclic peptides of protein N of SARS-CoV Urbani / Binding of serum 37 to looped/cyclic peptides of protein N of SARS-CoV Urbani / Binding of serum 62 to looped/cyclic peptides of protein N of SARS-CoV Urbani / Binding of serum London to looped/cyclic peptides of protein N of SARS-CoV Urbani / Binding of serum SARS-green to looped/cyclic peptides of protein N of SARS-CoV Urbani: unit not given here
# [3] = tested on: recombinant human anti-SARS-CoV antibody 03-018; assay type: binding; set-up: Binding of antibody 03-018 to linear peptides of the N protein of SARS-CoV Urbani / Binding of antibody 03-018 to looped/cyclic peptides of the N protein of SARS-CoV Urbani: unit not given here
# [4] = tested on: control sera (pooled serum of ten healthy LUMC hospital workers; commercial negative donor pooled serum from the Dutch bloodbank); assay type: binding, human; set-up: Binding of Control serum LUMC to linear peptides / Binding of Control serum Blood-bank to linear peptides / Binding of Control serum LUMC to looped peptides / Binding of Control Serum Blood-Bank to Looped peptides / Binding of Control serum LUMC to linear peptides of the protein M of SARS-CoV Urbani / Binding of Control serum Blood-bank to linear peptides of the protein M of SARS-CoV Urbani / Binding of Control serum LUMC to looped peptides of the protein M of SARS-CoV Urbani / Binding of Control Serum Blood-Bank to Looped peptides of the protein M of SARS-CoV Urbani: unit not given here
Sequence,Binding of a rabbit serum to linear peptides of protein N of SARS-CoV Urbani (Rabbit serum linear peptides) [1],Binding of a rabbit serum to looped/cyclic peptides of protein N of SARS-CoV Urbani (Rabbit serum looped peptides) [1],Binding of serum 1a to linear peptides of protein N of SARS-CoV Urbani [2],Binding of serum 1a to looped/cyclic peptides of protein N of SARS-CoV Urbani [2],Binding of serum 1b to linear peptides of protein N of SARS-CoV Urbani [2],Binding of serum 1b to looped/cyclic peptides of protein N of SARS-CoV Urbani [2],Binding of serum 2 to linear peptides of protein N of SARS-CoV Urbani [2],Binding of serum 2 to looped/cyclic peptides of protein N of SARS-CoV Urbani [2],Binding of serum 6 to looped/cyclic peptides of protein N of SARS-CoV Urbani [2],Binding of serum 37 to looped/cyclic peptides of protein N of SARS-CoV Urbani [2],Binding of serum 62 to looped/cyclic peptides of protein N of SARS-CoV Urbani [2],Binding of serum London to looped/cyclic peptides of protein N of SARS-CoV Urbani [2],Binding of serum SARS-green to looped/cyclic peptides of protein N of SARS-CoV Urbani [2],Binding of serum SARS-yellow to looped/cyclic peptides of protein N of SARS-CoV Urbani [2],Binding of antibody 03-018 to linear peptides of the N protein of SARS-CoV Urbani [3],Binding of antibody 03-018 to looped/cyclic peptides of the N protein of SARS-CoV Urbani [3],Binding of Control Serum Blood-Bank to Looped peptides [4],Binding of Control serum Blood-bank to linear peptides [4],Binding of Control serum LUMC to linear peptides [4],Binding of Control serum LUMC to looped peptides [4],other results
RGQGVPINTNSGPDD,0.1,0.0,0.2,0.2,0.1,0.1,0.1,0.2,0.1,0.3,0.2,0.2,0.2,0.0,0.1,0.2,0.4,0.5,0.5,0.4,Binding of serum 6 to linear peptides of protein N of SARS-CoV Urbani [2]: 0.1; Binding of serum 37 to linear peptides of protein N of SARS-CoV Urbani [2]: 0.3; Binding of serum 62 to linear peptides of protein N of SARS-CoV Urbani [2]: 0.4; Binding of serum London to linear peptides of protein N of SARS-CoV Urbani [2]: 0.4; Binding of serum SARS-green to linear peptides of protein N of SARS-CoV Urbani [2]: 0.4; Binding of serum SARS-yellow to linear peptides of protein N of SARS-CoV Urbani [2]: 0.6
RLNQLESKVSGKGQQ,0.2,0.6,–,0.4,–,0.3,–,0.5,0.4,0.6,0.7,0.4,0.4,0.8,0.1,0.2,0.6,0.8,0.7,0.7,Binding of serum 1a to linear peptide (PEPSCAN-ELISA) [2]: 0.3; Binding of serum 1b to linear peptide (PEPSCAN-ELISA) [2]: 0.2; Binding of serum 2 to linear peptide (PEPSCAN-ELISA) [2]: 0.3; Binding of serum 6 to linear peptide (PEPSCAN-ELISA) [2]: 0.2; Binding of serum 37 to linear peptide (PEPSCAN-ELISA) [2]: 0.7; Binding of serum 62 to linear peptide (PEPSCAN-ELISA) [2]: 0.9; Binding of serum London to linear peptide (PEPSCAN-ELISA) [2]: 0.6; Binding of serum SARS-green to linear peptide (PEPSCAN-ELISA) [2]: 0.4; Binding of serum SARS-yellow to linear peptide (PEPSCAN-ELISA) [2]: 0.7
RNGARPKQRRPQGLP,0.1,0.2,0.2,0.2,0.1,0.1,0.2,0.3,0.2,0.5,0.4,0.4,0.3,0.2,0.1,0.3,0.5,0.8,0.6,0.6,Binding of serum 6 to linear peptides of protein N of SARS-CoV Urbani [2]: 0.2; Binding of serum 37 to linear peptides of protein N of SARS-CoV Urbani [2]: 0.6; Binding of serum 62 to linear peptides of protein N of SARS-CoV Urbani [2]: 0.6; Binding of serum London to linear peptides of protein N of SARS-CoV Urbani [2]: 0.5; Binding of serum SARS-green to linear peptides of protein N of SARS-CoV Urbani [2]: 0.4; Binding of serum SARS-yellow to linear peptides of protein N of SARS-CoV Urbani [2]: 0.5
